From patent publication US6991809B2, “Particles with improved solubilization capacity” (Lyotropic Therapeutics, Inc., priority 2001, dated 2006)

Experiments:
[1] = Solubilizing paclitaxel in GRAS essential oils; format: physicochemical
[2] = Solubility of paclitaxel in eugenol and in egg phosphatidylcholine/eugenol/water mixture; format: physicochemical
Excerpt: The solubility of a given active in a mixture of hydrophobe and lipid is typically a very strongly increasing function of an increasing hydrophobe:lipid ratio, because the hydrophobe can generally be chosen specifically for its ability to solubilize the particular active whereas the choice of lipid has much more to do with its ability to form liquid crystals (in the presence of the hydrophobe, in particular).

CC(=O)O[C@H]1C(=O)[C@@]2(C)[C@H]([C@H](OC(=O)c3ccccc3)[C@]3(O)C[C@H](OC(=O)[C@H](O)[C@@H](NC(=O)c4ccccc4)c4ccccc4)C(C)=C1C3(C)C)[C@]1(OC(C)=O)CO[C@@H]1C[C@@H]2O [Paclitaxel]
Paclitaxel solubility (w/w, approx) ([1]; in essential oil: Oil of bay): ~16% w/w | Paclitaxel solubility (w/w, approx) ([1]; in essential oil: Sweet basil): ~7% w/w | Paclitaxel solubility (w/w, approx) ([1]; in essential oil: Thyme): ~10% w/w | solubility in lipid/eugenol/water mixture ([2]; in a mixture of 42% egg phosphatidylcholine, 35% eugenol, and 23% water): less than 1.5% | solubility in eugenol ([2]; in eugenol): over 15 % by weight
